Source: patent publication US9115374B2, “SYN3 compositions and methods” (MERCK SHARP & DOHME CORP., priority 2001, dated 2015)

Assay: Stability of lyophilized formulations of SYN3, concentration by HPLC after reconstitution
Assay type: physicochemical
Settings: in the dehydrated powder at 40° C.
Protocol: Stability testing of the resultant lyophilized products of Examples 13, 14 and 15 yielded the following results:
Stability testing was accomplished by HPLC. Lyophilized formulations were reconstituted (redissolved) with 19.5 ml WFI. Samples were placed in the indicated temperature conditions, incubated for specified times and concentrations were determined by HPLC and compared to initial concentrations.

Which “time SYN3 remains stable” value does the source give for `C[C@H](CCC(=O)NCCCN(CCCNC(=O)[C@H](O)[C@@H](O)[C@H](O[C@@H]1O[C@H](CO)[C@H](O)[C@H](O)[C@H]1O)[C@H](O)CO)C(=O)CC[C@@H](C)[C@H]1CC[C@H]2[C@@H]3[C@H](O)C[C@@H]4C[C@H](O)CC[C@]4(C)[C@H]3C[C@H](O)[C@]12C)[C@H]1CC[C@H]2[C@@H]3[C@H](O)C[C@@H]4C[C@H](O)CC[C@]4(C)[C@H]3C[C@H](O)[C@]12C` [SYN3, (N —(3-cholamidopropyl)—N —(3-lactobionamidopropyl))-cholamide] here?
The value was “at least 3 months”.
